Laboratory results reported in ChEMBL document CHEMBL1144114, “A new cacospongionolide derivative from the sponge Fasciospongia cavernosa” (J Nat Prod, 1999).
Values after ≈ are worked out from the molar mass of the structure shown.

Assays:
Artemia salina = assay: Toxicity against Artemia salina; format: organism-based; conditions: in vivo
Gambusia affinis = assay: Toxicity against Gambusia affinis; format: organism-based; conditions: in vivo
Bacillus subtilis = assay: Antibacterial activity against Bacillus subtilis DSM 347; format: functional
Micrococcus luteus = assay: Antibacterial activity against Micrococcus luteus DSM 348; format: functional

C[C@H]1CC=C2[C@H](CCCC2(C)C)[C@@]1(C)CCC1=CC[C@H](C2=CC(=O)O[C@H]2O)OC1 [CACOSPONGIONOLIDE F]
LC50 (Artemia salina): 0.17 ppm | LC50 (Gambusia affinis): 0.7 ppm | MIC (Bacillus subtilis): 0.78 µg/mL (≈ 1.95 µM) | MIC (Micrococcus luteus): 0.78 µg/mL (≈ 1.95 µM)
